{"source": "paper PMC4772377", "about": "“Structural insights into Cydia pomonella pheromone binding protein 2 mediated prediction of potentially active semiochemicals” (Scientific Reports, 2016)", "data": [{"target": "CpomPBP2 (Cydia pomonella, UniProt I3ZNT9)", "sequence (I3ZNT9 26-169 limits assumed)": "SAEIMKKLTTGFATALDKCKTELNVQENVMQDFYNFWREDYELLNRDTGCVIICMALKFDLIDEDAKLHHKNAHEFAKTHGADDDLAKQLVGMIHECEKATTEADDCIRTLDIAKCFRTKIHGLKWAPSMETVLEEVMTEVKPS", "experiment": "Competitive fluorescence binding assay with 1-NPN probe", "conditions": "2 μM CpomPBP2 and 2 μM 1-NPN, 50 mM Tris-HCl pH 6.8 (text: pH7.0); calculated from IC50; read-out: KD (dissociation constant of competitor)", "units": {"Kd": "µM"}, "values": [{"smiles": "CCCCCCC/C=C/C=C/C=O", "note": "[E,E-2,4-Dodecadienal]", "Kd": "6.99 ± 0.72"}, {"smiles": "CCCCCCOC(=O)CCCCC", "note": "[Hexyl Hexanoate]", "Kd": "16.2 ± 0.84"}, {"smiles": "CCC=CCCOC(=O)C(C)CC", "note": "(stereo not drawn) [Z-3-Hexenyl-2-Methylbutanoate]", "Kd": "97 ± 2.26"}]}]}
